Experimental data reported in patent publication US12241090B2, “Methods and systems for converting precursor cells into gastric tissues through directed differentiation” (CHILDREN'S HOSPITAL MEDICAL CENTER, priority 2014, dated 2025).

Assays:
[1] = test system: hPSC-derived definitive endoderm (DE) cultures; assay: Endoderm patterning of hPSC-derived DE cultures with growth factors/antagonists, qPCR and immunofluorescence; type: cell-based, human; details: CHIR 2 μM, compared with recombinant WNT3A
Description: Following DE induction, cells were treated for three days with growth factors/antagonists in RPMI 1640 with 2.0% dFBS. […] RA (2 μM; Sigma Aldrich) is added on the final day. Three-dimensional growth and antral specification. Posterior foregut spheroids were embedded in Matrigel (BD Biosciences) as previously described^10, 12 and subsequently grown in Advanced DMEM/F12 (Invitrogen) supplemented with N2 (Invitrogen), B27 (Invitrogen), L-glutamine, 10 μM HEPES, penicillin/streptomycin, and EGF (100 ng ml^−1; R&D Systems). For antral specification, RA and noggin were added for the first three days of three-dimensional growth. For endocrine cell specification, the EGF concentration is lowered to 10 ng ml^−1 at day 30.
The media was changed every day.

[2] = test system: hPSC-derived foregut spheroids; assay: Fundus specification protocol: Wnt signaling at days 6-9 of gastric organoid differentiation, qPCR; type: cell-based, human; details: CHIR 2 uM
Description: Next, the function of Wnt signaling in the regulation of fundus-antrum patterning at days 6-9 of the gastric organoid differentiation protocol was tested. Addition of Wnt3a (at 100 ng/mL and 500 ng/mL) had no effect on spheroid gene expression, but it […] expression of the Wnt target gene Axin2. Thus, the effects of the small molecule CHIR99021 (CHIR; 2 uM) were tested. CHIR99021 stimulates Wnt signaling in a receptor-independent fashion.
(§1) Analysis was performed using the ΔΔCT method.

[3] = test system: posterior foregut spheroids; assay: Three-dimensional culture of posterior foregut spheroids with RA, qPCR of organ lineage markers; type: cell-based, human; details: RA (2 μM) for 72 hours (days 6-9)
Description: (§2) Following DE induction, cells were treated for three days with growth factors/antagonists in RPMI 1640 with 2.0% dFBS. […] CHIR99021 is a small molecule that stimulates the Wnt signaling pathway. RA (2 μM; Sigma Aldrich) is added on the final day. Three-dimensional growth and antral specification. Posterior foregut spheroids were embedded in Matrigel (BD Biosciences) as previously described^10, 12 and subsequently grown in Advanced DMEM/F12 (Invitrogen) supplemented with N2 (Invitrogen), B27 (Invitrogen), L-glutamine, 10 μM HEPES, penicillin/streptomycin, and EGF (100 ng ml^−1; R&D Systems). For antral specification, RA and noggin were added for the first three days of three-dimensional growth. For endocrine cell specification, the EGF concentration is lowered to 10 ng ml^−1 at day 30.
The spheroids were transferred to a three-dimensional in vitro culture system as previously described5, 10, 12. Briefly, spheroids were collected, resuspended in 50 μl Matrigel (BD Biosciences), and plated in a three-dimensional droplet. After Matrigel was allowed to solidify for 10-15 minutes in a tissue culture incubator, spheroids were overlaid with gut media: Advanced DMEM/F12 with N2 (Invitrogen), B27 (Invitrogen), L-glutamine, 10 μM HEPES, penicillin/streptomycin, and EGF (100 ng ml^−1; R&D Systems). For the first three days, RA and Noggin were added to the gut media. […]

[4] = test system: human antral gastric organoids (hGOs); assay: Growth, morphogenesis and endocrine cell specification of human antral gastric organoids at different EGF concentrations; type: cell-based
Description: as §2
The spheroids were transferred to a three-dimensional in vitro culture system as previously described5, 10, 12. Briefly, spheroids were collected, resuspended in 50 μl Matrigel (BD Biosciences), and plated in a three-dimensional droplet. After Matrigel was allowed to solidify for 10-15 minutes in a tissue culture incubator, spheroids were overlaid with gut media: Advanced DMEM/F12 with N2 (Invitrogen), B27 (Invitrogen), L-glutamine, 10 μM HEPES, penicillin/streptomycin, and EGF (100 ng ml^−1; R&D Systems). For the first three days, RA and Noggin were added to the gut media. Media was replaced every 3-4 days, as necessary. At day 20, organoids were collected and re-plated in fresh Matrigel at dilution of ˜1:12.
All tissues were fixed in 4% paraformaldehyde for either one hour at room temperature for frozen processing or overnight at 4° C. for paraffin processing. For frozen sections, tissue was protected in 30% sucrose overnight at 4° C., then embedded in OCT (Tissue-Tek), and cut at 10 μm. For paraffin sections, tissue was processed through a graded ethanol series, followed by xylene, and then embedded in paraffin and cut at 7 μm. Tissue culture cells were fixed for 15 minutes at room temperature and stained directly. For staining, frozen slides were thawed to room temperature and rehydrated in PBS, while paraffin slides were deparaffinized and subjected to antigen retrieval. Slides were blocked in 5% normal donkey serum (Jackson Immuno Research) in PBS plus 0.5% Triton-X for 30 minutes at room temperature. Primary antibodies (listed in Methods Table 1) were diluted in blocking buffer and incubated overnight at 4° C. Slides were washed in PBS and incubated with secondary antibody for one hour at room temperature, and coverslips were mounted using Fluoromount-G (Southern Biotech). Confocal images were captured on a Nikon A1Rsi inverted confocal microscope.
as §1

**Q.** With `Cc1c[nH]c(-c2cnc(NCCNc3ccc(C#N)cn3)nc2-c2ccc(Cl)cc2Cl)n1` [CHIR99021] as the compound, how does the “posteriorizing effects on endoderm” value [1] read?
**A.** Its value is “same posteriorizing effects as recombinant WNT3A”.

**Q.** And the Pdx1 expression levels [2]?
**A.** Its Pdx1 expression levels is “robust repression”.

**Q.** And the “expression of fundus-specific markers IRX3 and IRX5” value [2]?
**A.** Its value is “induced high levels”.

**Q.** What about the “expression of the intestinal marker Cdx2” value [2] of the same compound?
**A.** The value was “did not induce”.

**Q.** How did the “increase in PDX1 mRNA levels” value [3] turn out when `CC1=C(/C=C/C(C)=C/C=C/C(C)=C/C(=O)O)C(C)(C)CCC1` [RA, retinoic acid] was run?
**A.** The value was > 100 fold.

**Q.** Which endocrine cell formation ([4]; EGF 10 ng ml^−1 from day 30-34) does the source give for “EGF: growth factor EGF (R&D Systems) added to gut media” here?
**A.** Its endocrine cell formation is “abundance of endocrine cells”.

**Q.** And the organoid diameter ([4]; EGF 100 ng mL^−1, over 3-4 weeks, from spheroids <100 μm)?
**A.** The organoid diameter was 2-4 mm.

**Q.** And the “endocrine cells per organoid” value ([4]; EGF 100 ng ml^−1, 34-day hGOs)?
**A.** The value was < 1 endocrine cell per organoid.

**Q.** And the “expression of proendocrine transcription factor NEUROG3” value ([4]; high EGF (100 ng ml^−1), qPCR at day 34)?
**A.** The value was “inhibited”.
